Assays:
[1] = system: C. albicans Wisc.; experiment: In vitro antifungal activity, MIC (modified Autotiter method); format: cell-based, Candida albicans; conditions: 18-20 hours at 37° C.; for MIC: Candida albicans, 20 h, read-out: MIC C. albicans Wisc.
Method: (§1) The antibacterial and antifungal activity of representative examples of the compounds of Formula I was determined using a modification of the Autotiter method described by Goss, et al. Applied Microbiology 16 (9) 1,414-1,416 (1968) in which a 1,000 mcg./ml. solution of the test compound is prepared. To the first cup of the Autotray is added 0.1 ml. of the test solution. Activation of the Autotiter initiates a sequence of operations by which 0.05 ml. of the test compound solution is withdrawn from the cup by a Microtiter transfer loop and diluted in 0.05 ml. of sterile water. Following this operation, 0.05 ml. of inoculated double-strength semisynthetic medium (glucose) is added automatically to each cup. The overall operation results in final drug concentrations ranging from 500 to 0.06 mcg./ml. in twofold decrements. […] The compounds were thus tested as solutions against a variety of gram positive and gram negative bacteria including Staphylococcus aureus, Proteus mirabilis, Escherichia coli, Klebsiella pneumoniae, Pseudomonas aeruginosa, Streptococcus pyogenes, and against such fungi as Aspergillus niger, Candida albicans and Trichophyton mentagrophytes.

[2] = system: C. albicans 10231; experiment: as above; format: cell-based, Candida albicans; conditions: 18-20 hours at 37° C.; for MIC: Candida albicans, 10231, 20 h, read-out: MIC C. albicans 10231
Method: as §1

[3] = system: T. menta. 9129; experiment: as above; format: cell-based, Trichophyton mentagrophytes; conditions: 18-20 hours at 37° C.; for MIC: Trichophyton mentagrophytes, 20 h, read-out: MIC T. menta. 9129
Method: as §1

[4] = system: E. coli 100/B22; experiment: In vitro antibacterial activity, MIC (modified Autotiter method); format: cell-based, Escherichia coli; conditions: 18-20 hours at 37° C.; for MIC: Escherichia coli, 100/B22, 20 h, read-out: MIC E. coli 100/B22
Method: as §1

[5] = system: E. coli AB1932-1; experiment: as above; format: cell-based, Escherichia coli; conditions: 18-20 hours at 37° C.; for MIC: Escherichia coli, AB19321, 20 h, read-out: MIC E. coli AB1932-1
Method: as §1

[6] = system: E. coli Vogel; experiment: as above; format: cell-based, Escherichia coli; conditions: 18-20 hours at 37° C.; for MIC: Escherichia coli, 20 h, read-out: MIC E. coli Vogel
Method: as §1

[7] = system: P. mirab. MGH-1; experiment: as above; format: cell-based, Proteus mirabilis; conditions: 18-20 hours at 37° C.; for MIC: Proteus mirabilis, 20 h, read-out: MIC P. mirab. MGH-1
Method: as §1

[8] = system: S. Aureus Smith; experiment: as above; format: cell-based, Staphylococcus aureus; conditions: 18-20 hours at 37° C.; for MIC: Staphylococcus aureus, 20 h, read-out: MIC S. Aureus Smith
Method: as §1

[9] = system: S. pyogen. C203; experiment: as above; format: cell-based, Streptococcus pyogenes; conditions: 18-20 hours at 37° C.; for MIC: Streptococcus pyogenes, 20 h, read-out: MIC S. pyogen. C203
Method: as §1

[10] = system: Ps. aerug. MGH-2; experiment: as above; format: cell-based, Pseudomonas aeruginosa; conditions: 18-20 hours at 37° C.; for MIC: Pseudomonas aeruginosa, 20 h, read-out: MIC Ps. aerug. MGH-2
Method: as §1

[11] = system: A. niger 16404; experiment: In vitro antifungal activity, MIC (modified Autotiter method); format: cell-based, Aspergillus niger; conditions: 18-20 hours at 37° C.; for MIC: Aspergillus niger, 16404, 20 h, read-out: MIC A. niger 16404
Method: as §1

[12] = system: K. pneum. 39645; experiment: In vitro antibacterial activity, MIC (modified Autotiter method); format: cell-based, Klebsiella pneumoniae; conditions: 18-20 hours at 37° C.; for MIC: Klebsiella pneumoniae, 20 h, read-out: MIC K. pneum. 39645
Method: as §1

Structure (SMILES) | MIC [1] [µg/mL] | MIC [2] [µg/mL] | MIC [3] [µg/mL] | MIC [4] [µg/mL] | MIC [5] [µg/mL] | MIC [6] [µg/mL] | MIC [7] [µg/mL] | MIC [8] [µg/mL] | MIC [9] [µg/mL] | MIC [10] [µg/mL] | MIC [11] [µg/mL] | MIC [12] [µg/mL] | also measured
CCCCCCCCNc1cc[n+](CCCCCCCCCCCC[n+]2ccc(NCCCCCCCC)cc2)cc1 [Example 45, 1,12-bis-[4-(octylamino)-1-pyridinium]dodecane dibromide] | 3.9 | 1 | 1 | 1.95 | 1.95 | 1.95 | 1.95 | 0.5 | 1 | 1.95 | 7.8 | 1 | 
CCCCCCCCCNc1cc[n+](CCCCCC[n+]2ccc(NCCCCCCCCC)cc2)cc1 [Example 48] |  |  |  |  |  |  |  |  |  |  |  |  | MIC C. albicans Wisc. [1]: 1.95 µg/mL; MIC C. albicans 10231 [2]: 1.95 µg/mL; MIC T. menta. 9129 [3]: 1.0 µg/mL; MIC E. coli 100/B22 [4]: 1.95 µg/mL; MIC E. coli AB1932-1 [5]: 1.95 µg/mL; MIC E. coli Vogel [6]: 1.95 µg/mL; MIC P. mirab. MGH-1 [7]: 7.8 µg/mL; MIC S. Aureus Smith [8]: 1.0 µg/mL; MIC S. pyogen. C203 [9]: 1.0 µg/mL; MIC Ps. aerug. MGH-2 [10]: 15.6 µg/mL; MIC A. niger 16404 [11]: 3.9 µg/mL; MIC K. pneum. 39645 [12]: 3.9 µg/mL
Clc1ccc(Nc2cc[n+](CCCCCCCC[n+]3ccc(Nc4ccc(Cl)cc4)cc3)cc2)cc1 [Example 78B, 1,8-bis-[4-(p-chlorophenylamino)-1-pyridinium]octane dimethanesulfonate] | 62.5 | 62.5 | 31.3 | 3.1 | 1.6 | 3.1 | 125 | 0.4 | 0.2 | 125 | 31.3 | 31.3 | 
CCCCCCCCCCCCNc1cc[n+](CCCCCCCC[n+]2ccc(NCCCCCCCCCCCC)cc2)cc1 [Example 72, 1,8-bis-[4-(dodecylamino)-1-pyridinium]octane dibromide] | 31.3 | 31.3 | 7.8 | > 62.5 | 62.5 | 31.3 | 62.5 | 7.8 | 15.6 | > 62.5 | > 62.5 | > 62.5 | 
CCCCCCCCCNc1cc[n+](CCCCCCCCCC[n+]2ccc(NCCCCCCCCC)cc2)cc1 [Example 51, 1,10-bis-[4-(nonylamino)-1-pyridinium]decane dibromide] | 3.9 | 3.9 | 1.95 | 3.9 | 3.9 | 1.95 | 3.9 | 1.95 | 1.95 | 3.9 | 7.8 | 3.9 | 
CCCCCCCCCCNc1cc[n+](CCCCCCCC[n+]2ccc(NCCCCCCCCCC)cc2)cc1 [Example 66, 1,8-bis-[4-(decylamino)-1-pyridinium]octane dibromide] | 15.6 | 7.8 | 1.95 | 3.9 | 7.8 | 1.95 | 7.8 | 1 | 1.95 | 7.8 | 15.6 | 3.9 | 
CCCCCCNc1cc[n+](CCCCCCCC[n+]2ccc(NCCCCCC)cc2)cc1 [Example 32, 1,8-bis-[4-(hexylamino)-1-pyridinium]octane dibromide] | 3.9 | 3.9 | 7.8 | 3.9 | 1.95 | 3.9 | > 250 | 0.24 | 0.49 | 125 | 7.8 | 7.8 | 
CCCCCCCCCNc1cc[n+](CCCCCCCCCCCC[n+]2ccc(NCCCCCCCCC)cc2)cc1 [Example 52, 1,12-bis-[4-(nonylamino)1-pyridinium]dodecane dibromide] | 7.8 | 7.8 | 1.95 | 3.9 | 7.8 | 3.9 | 3.9 | 1.95 | 1.95 | 3.9 | 15.6 | 3.9 | 
c1c[n+](CCCCCCCC[n+]2ccc(NC3CCCCC3)cc2)ccc1NC1CCCCC1 [Example 38, 1,8-bis-[4-(cyclohexylamino)-1-pyridinium]octane dibromide] | 31.3 | 31.3 | 3.9 | 62.5 | 31.3 | 62.5 | > 125 | 3.9 | 0.93 | 250 | 15.6 | > 125 | 
CCCCCCNc1cc[n+](CCCCCCCCCCCC[n+]2ccc(NCCCCCC)cc2)cc1 [Example 8] | 1 | 1 |  | 0.5 |  |  | 7.8 | 0.25 | 1 | 15.6 |  | 1 | MIC T. menta. 9129 [3]: 1.0 µg/mL; MIC E. coli AB1932-1 [5]: 1.0 µg/mL; MIC E. coli Vogel [6]: 1.0 µg/mL; MIC A. niger 16404 [11]: 7.8 µg/mL
CCCCCCCCCCNc1cc[n+](CCCCCCCCCC[n+]2ccc(NCCCCCCCCCC)cc2)cc1 [Example 68, 1,10-bis-[4-(decylamino)-1-pyridinium]decane dibromide] | 15.6 | 15.6 | 3.9 | 15.6 | 15.6 | 7.8 | 7.8 | 1.95 | 3.9 | 15.6 | 15.6 | 31.3 | 
Clc1ccc(Nc2cc[n+](CCCCCC[n+]3ccc(Nc4ccc(Cl)cc4)cc3)cc2)cc1 [Example 77B, 1,6-bis-[4-(p-chlorophenylamino)-1-pyridinium]hexane dimethanesulfonate] | 125 | 62.5 | 15.6 | 15.6 | 3.9 | 15.6 | 500 | 3.9 | 1.95 | 500 | 62.5 | 500 | 
CCCCCCCCCCNc1cc[n+](CCCCCCCCCCCC[n+]2ccc(NCCCCCCCCCC)cc2)cc1 [Example 69, 1,12-bis-[4-(decylamino)-1-pyridinium]dodecane dibromide] | 15.6 | 15.6 | 3.9 | 15.6 | 31.3 | 7.8 | 15.6 | 1.95 | 3.9 | 15.6 | 15.6 | 31.3 | 
CCCCCCCCNc1cc[n+](CCCCCCC[n+]2ccc(NCCCCCCCC)cc2)cc1 [Example 43, 1,7-bis-[4-(octylamino)-1-pyridinium]heptane dibromide] | 1.95 | 1.95 | 1 | 1 | 1 | 1.95 | 7.8 | 0.5 | 1 | 31.3 | 7.8 | 1 | 
CCCCCCCCCNc1cc[n+](CCCCCC[n+]2ccc(NCCCCCCCCC)cc2)cc1 [Example 47, 1,6-bis-[4-(nonylamino)-1-pyridinium]-hexane dibromide] | 1.95 | 3.9 | 1 | 1.95 | 1.95 | 1 | 3.9 | 0.5 | 1 | 15.6 |  | 3.9 | MIC A. niger 16404 [11]: 15.6 µg/mL
